Counter-ions that a name gives are not always drawn.
Assays:
[1] = target: influenza virus neuraminidase (wild-type) (Influenza A virus, UniProt Q9IGQ6); type: biochemical
[2] = tested on: influenza; details: in vivo; cited from earlier work

Sequence of influenza virus neuraminidase (wild-type) (Q9IGQ6 whole entry, looked up): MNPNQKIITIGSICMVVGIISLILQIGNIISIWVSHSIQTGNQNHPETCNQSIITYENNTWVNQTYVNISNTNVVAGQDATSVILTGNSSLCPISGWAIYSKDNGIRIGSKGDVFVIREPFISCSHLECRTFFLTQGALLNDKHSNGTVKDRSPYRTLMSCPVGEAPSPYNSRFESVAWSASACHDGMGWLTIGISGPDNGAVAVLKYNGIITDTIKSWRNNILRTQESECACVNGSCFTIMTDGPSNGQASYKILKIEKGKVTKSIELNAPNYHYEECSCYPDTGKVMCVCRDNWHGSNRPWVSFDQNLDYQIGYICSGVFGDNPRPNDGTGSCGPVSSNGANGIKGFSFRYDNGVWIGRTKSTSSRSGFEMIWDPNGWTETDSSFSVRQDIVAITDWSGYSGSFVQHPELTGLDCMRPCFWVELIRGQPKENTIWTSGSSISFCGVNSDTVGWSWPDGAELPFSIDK

Row | SMILES | inhibiting activity on wild-type virus strains [1] | reduction of severity level of influenza symptoms [2] [%] | shortening of the state of illness [2] [days]
1 | COCCO[C@@H]1CCCN([C@@H]2C=C(C(=O)O)C[C@H](N)[C@H]2NC(C)=O)C1 [Example 1, (3R,4R,5S)-4-acetamido-5-amino-3-((3S)-3-(2-methoxylethoxyl)piperidin)-1-cyclohexene-1-carboxylic acid trifluoroacetate] | perfect inhibiting activities |  | 
2 | COCCO[C@@H]1CCCN([C@@H]2C=C(C(=O)O)C[C@H](NC(=N)N)[C@H]2NC(C)=O)C1 [Example 11, (3R,4R,5S)-4-acetamido-5-guanidino-3-((3S)-(2-methoxylethyoxyl)piperidin)-1-cyclohexene-1-carboxylic acid trifluoroacetate] | perfect inhibiting activities |  | 
3 | CCOC(=O)C1=C[C@@H](OC(CC)CC)[C@H](NC(C)=O)[C@@H](N)C1.O=P(O)(O)O [Oseltamivir phosphate, ethyl (3R,4R,5S)-4-acetamido-5-amino-3-(1-ethylpropoxyl)-1-cyclohexene-1-carboxylate phosphate] |  | 40 | 3.1

Source: patent publication US10919856B2 (priority 2016, dated 2021)
